Measured values from PubChem BioAssay (NCI).
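Values below derive from 48-hour exposures of cells grown in 96-well plates, with endpoints linearly interpolated between the two concentrations bracketing the appropriate inhibition level. TGI: total growth inhibition.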

Key:
Assay in all cases: NCI tumour cell line growth inhibition, 48 h
MALME-3M melanoma = test system: MALME-3M melanoma
U251 CNS = test system: U251 CNS
T-47D breast = test system: T-47D breast
HT29 colon = test system: HT29 colon
ACHN renal = test system: ACHN renal
SF-268 CNS = test system: SF-268 CNS
HCT-15 colon = test system: HCT-15 colon
IGROV1 ovarian = test system: IGROV1 ovarian
OVCAR-5 ovarian = test system: OVCAR-5 ovarian
SK-MEL-5 melanoma = test system: SK-MEL-5 melanoma
RPMI-8226 leukemia = test system: RPMI-8226 leukemia
NCI-H23 lung = test system: NCI-H23 lung
K-562 leukemia = test system: K-562 leukemia
NCI-H460 lung = test system: NCI-H460 lung
SF-295 CNS = test system: SF-295 CNS
SNB-75 CNS = test system: SNB-75 CNS
786-0 renal = test system: 786-0 renal
NCI-H522 lung = test system: NCI-H522 lung
KM12 colon = test system: KM12 colon
CAKI-1 renal = test system: CAKI-1 renal
UACC-62 melanoma = test system: UACC-62 melanoma
LOX IMVI melanoma = test system: LOX IMVI melanoma
OVCAR-4 ovarian = test system: OVCAR-4 ovarian
SK-MEL-2 melanoma = test system: SK-MEL-2 melanoma
EKVX NSCLC = test system: EKVX NSCLC
HOP-92 NSCLC = test system: HOP-92 NSCLC
NCI-H226 lung = test system: NCI-H226 lung
MDA-MB-435 = test system: MDA-MB-435
SK-MEL-28 melanoma = test system: SK-MEL-28 melanoma
RXF 393 renal = test system: RXF 393 renal
SF-539 CNS = test system: SF-539 CNS
UACC-257 melanoma = test system: UACC-257 melanoma
HCC-2998 colon = test system: HCC-2998 colon
UO-31 renal = test system: UO-31 renal
SR leukemia = test system: SR leukemia
SW-620 colon = test system: SW-620 colon
CCRF-CEM leukemia = test system: CCRF-CEM leukemia
MCF7 breast = test system: MCF7 breast
HL-60(TB) leukemia = test system: HL-60(TB) leukemia
MDA-N = test system: MDA-N
SN12C renal = test system: SN12C renal
HOP-62 NSCLC = test system: HOP-62 NSCLC
HCT-116 colon = test system: HCT-116 colon
A549 NSCLC = test system: A549 NSCLC
NCI/ADR-RES ovarian = test system: NCI/ADR-RES ovarian
SK-OV-3 ovarian = test system: SK-OV-3 ovarian
TK-10 renal = test system: TK-10 renal
DU-145 prostate = test system: DU-145 prostate
OVCAR-8 ovarian = test system: OVCAR-8 ovarian
OVCAR-3 ovarian = test system: OVCAR-3 ovarian
MOLT-4 leukemia = test system: MOLT-4 leukemia
COLO 205 colon = test system: COLO 205 colon
BT-549 breast = test system: BT-549 breast
PC-3 prostate = test system: PC-3 prostate
M14 melanoma = test system: M14 melanoma
MDA-MB-231 breast = test system: MDA-MB-231 breast
SNB-19 CNS = test system: SNB-19 CNS
HS 578T breast = test system: HS 578T breast
A498 renal = test system: A498 renal

Measured: TGI

COC(=O)[C@]1(c2cc3ccccc3[nH]2)CC2CNC1C1OC(C)(C)OC21 (some centres undefined)
not listed: HS 578T breast | A498 renal
> 100 µM: all other assays above

O=c1[nH]c2ccccc2c(=O)n1/N=C\c1ccccc1O
not listed: MALME-3M melanoma | NCI-H522 lung | OVCAR-4 ovarian | RXF 393 renal | HCC-2998 colon | NCI/ADR-RES ovarian | OVCAR-8 ovarian
> 100 µM: all other assays above
